Drawing on US7514432B2, “Compounds and methods of treating cell proliferative diseases, retinopathies and arthritis” (Exonhit Therapeutics SA, priority 2003, dated 2009), this text covers IC50 for three molecules.

The subject of experiment [1] is Primary Hepatocytes. Kind of experiment: Cell viability assay (MTT), primary hepatocytes. The class given is cell-based. The conditions noted are these: Hepatocyte, 10% FBS, 16-hours treatment, 1% DMSO. As for the experimental part: Table 15: 16-hour cell viability assay (MTT) in the presence of 10% Fetal Bovine Serum and 1% DMSO, in HCT116, MDA-MB-231, NIH3T3, HepG2 and primary hepatocytes. 5 10^4 to 10 10^4 cells were seeded in 48-well plates in growth medium containing 10% FBS, with or without various concentrations of test compounds. Data were analyzed and IC50s were calculated from dose-reponse curves using GraphPad Prism. Results summarized in the tables are mean±SEM of 1 to 2 independent experiments.
(§1) In order to determine a compound's effect on cell viability, microculture tetrazolium assays (MTT) were performed as described by Carmichael et al. (1996) with modifications. Four human tumoral cell lines, namely HCT116 colon adenocarcinoma, H460 lung carcinoma, MCF-7 and MDA-MB-231 breast carcinoma cell lines, DLD1 colorectal adenocarcinoma, HeLa adenocarcinoma, HepG2 hepatocellular carcinoma. 3 immortalized but non tumorigenic cell lines, namely NIH3T3 mouse fibroblasts (American Type Culture Collection) and primary hepatocytes (Biopredic international), cultured according to their recommendations together with Human Microvasculature Endothelial Cell line HMEC1 (National Center for Infectious Diseases). Briefly, cells were seeded in 48-well plates 24 hours before drug addition. Cells were treated with 0 to 200 μM (11 concentrations) of compound solubilized in DMSO, adjusting the final concentration of DMSO to 1% in the well. 16 hours, and three or six days after treatment, 0.5 mg/ml MTT (Sigma) was added to the medium and cells were incubated for 1-5 hours at 37° C. before solubilization of formazan crystals in 100% DMSO. Absorbance was measured using a spectrophotometer at a wavelength of 550 nm. Data was analyzed using the GraphPad Prism software (GraphPad Software, Inc.), and IC50 (dose leading to 50% cell death) was calculated from the dose-response curves.

Experiment [2] has as its system DLD1. Kind of experiment: Cell viability assay (MTT), DLD1. The class given is cell-based. The conditions noted are these: Homo sapiens, DLD-1, 72 h, 10% FBS, 3-day treatment, 1% DMSO. How it is done: Table 14: 3-day cell viability assay (MTT) in the presence of 10% Fetal Bovine Serum and 1% DMSO, in DLD1, HCT116, MDA-MB-231, MCF7 and HeLa cells. 7.5 10^3 to 1.5 10^4 cells were seeded in 48-well plates in growth medium containing 10% FBS, with or without various concentrations of test compounds. Data were analyzed and IC50s were calculated from dose-response curves using GraphPad Prism. Results summarized in the tables are mean±SEM of 1 to 7 independent experiments.
as §1

Experiment [3] has as its system MDA-MB-231. Kind of experiment: Boyden chamber migration assay, MDA-MB-231. The class given is cell-based, human. The conditions noted are these: Homo sapiens, FBS as chemoattractant. How it is done: (§2) FIG. 4: Migration assays. (A) Wound healing assay in REF cells. 7.6 10^4 cells were plated on coverslips 48 hours before the experiment. The cells were pre-treated for 30 min. with the compounds, and then a scrape was done using a pipette tip. The scraped coverslips in treatment medium were put under a thermostated microscope coupled to a video camera. Movies were analyzed as described in material and methods, and velocity and total distance covered by the cells were evaluated. Bar graphs represent the mean±SEM of 2 to 4 experiments. (B) Boyden chamber migration assay in HMEC1, NIH3T3 and MDA-MB-231 cells. 5 10^4 to 7.5 10^4 Cells, resuspended in culture medium with or without FBS and with different compound concentrations, were seeded in the upper Boyden blind well on top of 8 μm pore-sized filters. The ability of the cells to migrate through the filter was assayed in the absence or presence of FBS in the lower Boyden chamber. After 16 hours incubation, the medium was removed and replaced with calcein-AM containing medium. After labeling, cells were washed with HBSS and fluorescence was read in a fluorescence plate reader. Fluorescence values were normalized against the fluorescence obtained for the 1% DMSO control. The data plotted are the means±SEM of 2 to 4 independent experiments.
(§3) An essential characteristic of malignant cells is their ability to migrate, invade host tissues and to produce metastases. In order to evaluate the capacity of one compound to affect the ability of tumoral cells to migrate, migration assays were performed using highly invasive tumoral cells MDA-MB-231, endothelial cells HMEC1 or fibroblastic cells NIH3T3. This assay was performed using Falcon HTS Fluoroblock inserts. Culture medium containing Fetal Bovine Serum (FBS; which is used as a chemoattractant) was added to the plate wells and 2 10^4 to 7.5 10^4 cells resuspended in medium without FBS and with 0.1% BSA were added to each insert well. The compound of interest was added to the medium in both the upper and the lower chambers. Plates were incubated for 16 hours at 37° C. Following incubation, the medium was removed from the upper chamber and the entire insert plate was transferred to a second 24-well plate containing 4 μg/ml Calcein-AM™ in medium containing 0.1% BSA. The plates were incubated for one hour at 37° C., rinsed with Hanks Buffered Saline (HBSS). Fluorescence data were collected using Fluoroskan Ascent FL fluorescence plate reader at an excitation wavelength (Ex) of 485 nm and emission wavelength (Em) of 517 nm. Only those labelled cells that passed through the Matrigel layer and the membrane were detected. Data were analyzed using the GraphPad Prism software and IM50s (dose at which 50% inhibition of cell migration is observed) were calculated.

For experiment [4], the system named is HMEC1. Kind of experiment: Boyden chamber migration assay, HMEC1. The class given is cell-based. As to conditions: Homo sapiens, read-out: IC50, migration in Boyden chamber, HMEC1. As for the experimental part: as §2
An essential characteristic of malignant cells is their ability to migrate, invade host tissues and to produce metastases. In order to evaluate the capacity of one compound to affect the ability of tumoral cells to migrate, migration assays were performed using highly invasive tumoral cells MDA-MB-231, endothelial cells HMEC1 or fibroblastic cells NIH3T3. This assay was performed using Falcon HTS Fluoroblock inserts. […] Fluorescence data were collected using Fluoroskan Ascent FL fluorescence plate reader at an excitation wavelength (Ex) of 485 nm and emission wavelength (Em) of 517 nm. Only those labelled cells that passed through the Matrigel layer and the membrane were detected. […]

Experiment [5] deals with NIH3T3. The experiment in a line: Boyden chamber migration assay, NIH3T3. The class given is cell-based, mouse. As to conditions: Mus musculus, FBS as chemoattractant. How it is done:
as §2, §3

[6] abbreviates: HMEC-1, FBS as chemoattractant, 16 hours.

Like-named read-outs stand apart in the source and are kept apart here.

For the molecule `Cl.Cl.O=c1cc(CN2CCOCC2)occ1OCCCCCSc1ccnc2cc(C(F)(F)F)ccc12` [EHT 1864, 5-(5-(7-(Trifluoromethyl)quinolin-4-ylthio)pentyloxy)-2-(morpholinomethyl)-4H-pyran-4-one dihydrochloride], the IC50 in experiment [1] is above 50 µM; in experiment [2], 21.9 µM; in experiment [3] (MDA-MB-231, 16 hours), 5.1 ± 1.9 µM; in experiment [4] (HMEC-1, 16 h) it was 7.8 ± 1.7 µM; in experiment [5] (NIH3T3, 16 hours), 20.4 ± 3.5 µM.
In the case of `CN1CCN(Cc2cc(=O)c(OCCCCCSc3ccnc4cc(C(F)(F)F)ccc34)co2)CC1.Cl.Cl.Cl` [EHT 9241, 5-(5-(7-(Trifluoromethyl)quinolin-4-ylthio)pentyloxy)-2-((4-methylpiperazin-1-yl)methyl)-4H-pyran-4-one trihydrochloride], the IC50 in experiment [1] is 29.6 µM; in experiment [2], 8.1 µM; in experiment [3] (MDA-MB-231, 16 h) it was 2.7 ± 1 µM; in experiment [4] (setting [6]) it was 9.1 ± 1.4 µM; in experiment [5] (NIH3T3, 16 h), 4.7 ± 0.6 µM.
In the same order, the values of `Cl.Cl.Cl.O=c1cc(CN2CCNCC2)occ1OCCCCCSc1ccnc2cc(C(F)(F)F)ccc12` [EHT 8560, 5-(5-(7-(Trifluoromethyl)quinolin-4-ylthio)pentyloxy)-2-((piperazin-1-yl)methyl)-4H-pyran-4-one trihydrochloride] are 17.3 µM, 5.6 µM, 4.5 ± 2.4 µM, 9.5 ± 0.3 µM and 10 ± 0.6 µM.
